In patent US8022225B2, “Triazole derivative” (Taisho Pharmaceutical Co., Ltd, priority 2004, dated 2011) one finds inhibition and Kd data, which are given here for 43 compounds.

Assay [1] addresses T1, human Edg-1(S1P1) (Homo sapiens, UniProt P21453).
T1 construct: expressed in transfected cells; host or cells: HEK-293
Briefly: Membrane system binding test: inhibition of [33P]-S1P binding to the membrane fraction of Edg-1(S1P1) gene transferred HEK-293 cells. Conditions: for inhibition at 10 µM: 10 μM compound, [33P]-S1P 0.1 nM, membrane fraction of Edg-1(S1P1) gene transferred HEK-293 cells, read-out: Membrane system binding test % inhibition (10 μM). As for the experimental part: The membrane fraction was obtained by treating the cells with a solubilizing buffer (1 mM Tris/HCl, pH 7.2) for 10 minutes on ice, centrifuging the system (1000×g, 5 min) to remove insoluble fractions, and then centrifuging the system (40000×g, 30 min, 4° C.). The resulting membrane fraction was dissolved in a binding buffer (20 mM Tris-HCl, pH 7.4, 100 mM NaCl, 15 mM NaF, 2 mM deoxypyridoxine, 4 mg/mL fatty acid-free BSA), and then [^33P]-S1P (produced by ARC, end concentration 0.1 nM) and a DMSO solution of the test compound (end concentration of the compound: 10^−5 M, end concentration of DMSO: 0.1%) were added, followed by stirring the mixture and subsequently treating it for 1 hour at 30° C. Using a harvester, the membrane fraction was harvested onto unifilter-96GF/C filter (produced by Perkin-Elmer). Then, the filter with the membrane fraction was washed 4 times with the binding buffer, and the filter was dried. To the filter, 25 μL Microscint 0 (produced by Perkin-Elmer) was added, and the assay system was measured for radioactivity by means of Top Count NXT (Packard). Based on the radioactivity, the amount (A) of binding of [^33P]-S1P to the membrane fraction upon addition of the compound was calculated.
The same procedure was performed in the absence of the test compound, and the amount (B) of binding of [^33P]-S1P was calculated. Moreover, the same procedure was performed in the absence of the test compound with the use of HEK-293 cells, to which the Edg-1(S1P1) gene had not been transferred, and the background amount (C) of binding of [^33P]-S1P was calculated.
The Edg-1(S1P1) binding inhibition rate of the compound, calculated from the following equation, is shown in […]

Assay [2] concerns the target T1, human Edg-1(S1P1). The experiment in a line: Cell system binding test: inhibition of [3H]-S1P binding to Edg-1(S1P1) gene transferred HEK-293 cells. Conditions: 10 μM compound, [3H]-S1P 10 nM, read-out: Cell system binding test % inhibition (10 μM). The protocol:
Cells (1×10^5 cells/well) obtained as described above were seeded in poly-L-lysine-coated 96-well plates (Corning Incorporated), and then incubated in a 5% carbon dioxide gas incubator for 12 hours at 37° C. with the use of an MEM medium (Invitrogen Corporation) containing 100 U/mL of penicillin, 100 μg/mL of streptomycin, a 1% MEM nonessential amino acid solution, and 10% FCS. […] After the cells were washed twice with the buffer, they were solubilized with 100 μL of Opti Phase Supermix (produced by Perkin-Elmer), and measured for radioactivity by means of Micro Beta (produced by Perkin-Elmer).
Inhibition rate(%)=[1−(A−C)/(B−C)]×100

T1 sequence (P21453 whole entry): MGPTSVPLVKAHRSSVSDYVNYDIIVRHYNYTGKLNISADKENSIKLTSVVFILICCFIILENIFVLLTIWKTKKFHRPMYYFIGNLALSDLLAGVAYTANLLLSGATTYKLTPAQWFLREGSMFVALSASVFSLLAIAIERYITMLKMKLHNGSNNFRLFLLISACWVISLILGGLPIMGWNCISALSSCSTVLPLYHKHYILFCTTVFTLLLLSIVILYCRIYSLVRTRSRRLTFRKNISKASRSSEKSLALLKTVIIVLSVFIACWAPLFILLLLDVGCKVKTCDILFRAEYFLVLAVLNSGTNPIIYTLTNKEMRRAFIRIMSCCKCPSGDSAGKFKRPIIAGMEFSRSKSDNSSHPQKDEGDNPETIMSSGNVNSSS

Broadly, the inhibition is the relative decrease from the control value, in per cent. With `CCCSc1nnc([C@@H](C)NS(=O)(=O)c2ccc(Cl)cc2)n1CC` [Compound 2], the inhibition at 10 µM in assay [1] came to 101%; in assay [2], 88.5%.
With `C=CCSc1nnc([C@@H](C)NS(=O)(=O)c2ccc(Cl)cc2)n1CC` [Compound 3], the inhibition at 10 µM is 89.1% in assay [1] and 86.1% in assay [2].
For `C#CCSc1nnc([C@@H](C)NS(=O)(=O)c2ccc(Cl)cc2)n1CC` [Compound 4], the inhibition at 10 µM was 101% in assay [1] and 86.8% in assay [2].
As for `CCn1c(SCc2ccccc2)nnc1[C@@H](C)NS(=O)(=O)c1ccc(Cl)cc1` [Compound 5, N-{(1R)-1-[5-(benzylthio)-4-ethyl-4H-1,2,4-triazol-3-yl]ethyl}-4-chloro-benzenesulfonamide], the inhibition at 10 µM in assay [1] was determined as 81.2%; in assay [2], 97.2%.
For `CCn1c(SCc2ccc(-c3ccccc3)cc2)nnc1[C@@H](C)NS(=O)(=O)c1ccc(Cl)cc1` [Compound 6] the same measures were 99% and 94.3%.
`CCn1c(SCc2cccc(C#N)c2)nnc1[C@@H](C)NS(=O)(=O)c1ccc(Cl)cc1` [Compound 7]: the values for the inhibition at 10 µM in assay [1] and in assay [2] were 74.6% and 88.5%, respectively.
Turning to `CCn1c(SC2CCCCC2)nnc1[C@@H](C)NS(=O)(=O)c1ccc(Cl)cc1` [Compound 8], the results for the inhibition at 10 µM in assay [1] and in assay [2] were 85.6% and 83.9%, respectively.
`CCn1c(SC2CCCC2)nnc1[C@@H](C)NS(=O)(=O)c1ccc(Cl)cc1` [Compound 9]: the inhibition at 10 µM was determined as 86.7% in assay [1] and 90.1% in assay [2].
For `CCn1c(SCC2CC2)nnc1[C@@H](C)NS(=O)(=O)c1ccc(Cl)cc1` [Compound 10] the same measures were 54.3% and 85.6%.
Turning to `CCn1c(SCc2ccc(F)cc2)nnc1[C@@H](C)NS(=O)(=O)c1ccc(Cl)cc1` [Compound 11], the inhibition at 10 µM was 45.1% in assay [1] and 85.5% in assay [2].
On to `CCn1c(SCC2(c3ccc(Cl)cc3)CC2)nnc1[C@@H](C)NS(=O)(=O)c1ccc(Cl)cc1` [Compound 12], for which the results for the inhibition at 10 µM in assay [1] and in assay [2] were 85.9% and 87.8%, respectively.
Turning to `CCn1c(SCC2CCOC2)nnc1[C@@H](C)NS(=O)(=O)c1ccc(Cl)cc1` (stereo partly shown) [Compound 13], the inhibition at 10 µM in assay [1] was 43.6%; in assay [2], 80.8%.
For `C=CCCSc1nnc([C@@H](C)NS(=O)(=O)c2ccc(Cl)cc2)n1CC` [Compound 14], the inhibition at 10 µM is 69.6% in assay [1] and 87% in assay [2].
Take `CCn1c(SCCCC(F)(F)F)nnc1[C@@H](C)NS(=O)(=O)c1ccc(Cl)cc1` [Compound 15]: the inhibition at 10 µM in assay [1] is 79.4%; in assay [2], 91%.
With `CCn1c(SCCOC)nnc1[C@@H](C)NS(=O)(=O)c1ccc(Cl)cc1` [Compound 16], the values for the inhibition at 10 µM in assay [1] and in assay [2] were 64.4% and 92.1%, respectively.
The like results for `CCC#CCSc1nnc([C@@H](C)NS(=O)(=O)c2ccc(Cl)cc2)n1CC` [Compound 17] were, in that order, 90.6% and 85.5%.
Take `CCn1c(SCCCC#Cc2ccccc2)nnc1[C@@H](C)NS(=O)(=O)c1ccc(Cl)cc1` [Compound 18]: the inhibition at 10 µM was 100% in assay [1] and 84.8% in assay [2].
Turning to `CCn1c(SCCc2ccc(Cl)cc2)nnc1[C@@H](C)NS(=O)(=O)c1ccc(Cl)cc1` [Compound 19], the inhibition at 10 µM in assay [1] worked out at 100%; in assay [2], 82.5%.
On to `CCCC(CCC)Sc1nnc([C@@H](C)NS(=O)(=O)c2ccc(Cl)cc2)n1CC` [Compound 20], for which the results for the inhibition at 10 µM in assay [1] and in assay [2] were 74.3% and 84.3%, respectively.
As for `C/C=C/CSc1nnc([C@@H](C)NS(=O)(=O)c2ccc(Cl)cc2)n1CC` [Compound 21], the inhibition at 10 µM came out at 74.8% in assay [1] and 82.2% in assay [2].
`CCn1c(SCc2cccc(C)c2)nnc1[C@@H](C)NS(=O)(=O)c1ccc(Cl)cc1` [Compound 22]: the values for the inhibition at 10 µM in assay [1] and in assay [2] were 96.9% and 82.1%, respectively.
Turning to `CCn1c(SCCOc2ccccc2)nnc1[C@@H](C)NS(=O)(=O)c1ccc(Cl)cc1` [Compound 23], the inhibition at 10 µM in assay [1] amounted to 95%; in assay [2] it was 84.4%.
In the case of `CCn1c(SCC(=O)OC)nnc1[C@@H](C)NS(=O)(=O)c1ccc(Cl)cc1` [Compound 24], the inhibition at 10 µM in assay [1] was 60.6%; in assay [2], 82.6%.
Consider `CCn1c(SCC2CCCCC2)nnc1[C@@H](C)NS(=O)(=O)c1ccc(Cl)cc1` [Compound 25], for which the inhibition at 10 µM is 77.8% in assay [1] and 81.5% in assay [2].
For `CCn1c(SCCSC)nnc1[C@@H](C)NS(=O)(=O)c1ccc(Cl)cc1` [Compound 26] the same measures were 61.1% and 84%.
With `CC#CCSc1nnc([C@@H](C)NS(=O)(=O)c2ccc(Cl)cc2)n1CC` [Compound 27], the results for the inhibition at 10 µM in assay [1] and in assay [2] were 76% and 86.9%, respectively.
For `CCn1c(SCC=C(C)C)nnc1[C@@H](C)NS(=O)(=O)c1ccc(Cl)cc1` [Compound 28], the inhibition at 10 µM in assay [1] was determined as 82.8%; in assay [2] it was 93.1%.
As for `CCCCSc1nnc([C@@H](C)NS(=O)(=O)c2ccc(Cl)cc2)n1CC` [Compound 29], the inhibition at 10 µM in assay [1] was 95.9%; in assay [2], 93%.
In the case of `CCCCCCCCSc1nnc([C@@H](C)NS(=O)(=O)c2ccc(Cl)cc2)n1CC` [Compound 30], the inhibition at 10 µM in assay [1] is 100%; in assay [2] it was 91.9%.
As for `CCn1c(SCC2CCO2)nnc1[C@@H](C)NS(=O)(=O)c1ccc(Cl)cc1` (stereo partly shown) [Compound 31], the values for the inhibition at 10 µM in assay [1] and in assay [2] were 90% and 90.2%, respectively.
Turning to `CCn1c(SCc2ccccc2C)nnc1[C@@H](C)NS(=O)(=O)c1ccc(Cl)cc1` [Compound 32], the inhibition at 10 µM worked out at 99.1% in assay [1] and 89.1% in assay [2].
As for `CCn1c(SCC(C)C)nnc1[C@@H](C)NS(=O)(=O)c1ccc(Cl)cc1` [Compound 33], the inhibition at 10 µM in assay [1] is 90%; in assay [2], 91.7%.
The like results for `CCn1c(SCC2CCC2)nnc1[C@@H](C)NS(=O)(=O)c1ccc(Cl)cc1` [Compound 34] were, in that order, 76.4% and 91.5%.
In the case of `CCn1c(SCC2CCCCCCC2)nnc1[C@@H](C)NS(=O)(=O)c1ccc(Cl)cc1` [Compound 35], the inhibition at 10 µM is 87.7% in assay [1] and 91.9% in assay [2].
With `CCn1c(SC2CCc3ccccc3C2)nnc1[C@@H](C)NS(=O)(=O)c1ccc(Cl)cc1` (stereo partly shown) [Compound 36], the inhibition at 10 µM in assay [1] was 104%; in assay [2], 89.5%.
On to `CCn1c(SCCOCc2ccccc2)nnc1[C@@H](C)NS(=O)(=O)c1ccc(Cl)cc1` [Compound 37], for which the inhibition at 10 µM in assay [1] was 92.8%; in assay [2], 92.7%.
Turning to `CCn1c(SC/C=C/c2ccccc2)nnc1[C@@H](C)NS(=O)(=O)c1ccc(Cl)cc1` [Compound 38], the inhibition at 10 µM turned out to be 81% in assay [1] and 91.5% in assay [2].
Turning to `CCn1c(SCCCc2ccccc2)nnc1[C@@H](C)NS(=O)(=O)c1ccc(Cl)cc1` [Compound 39], the inhibition at 10 µM in assay [1] is 86.7%; in assay [2] it was 93.8%.
The like results for `CCn1c(SC(c2ccccc2)c2ccccc2)nnc1[C@@H](C)NS(=O)(=O)c1ccc(Cl)cc1` [Compound 40] were, in that order, 46.1% and 87%.
Consider `CCn1c(SC(C)c2ccccc2)nnc1[C@@H](C)NS(=O)(=O)c1ccc(Cl)cc1` (stereo partly shown) [Compound 41], for which the results for the inhibition at 10 µM in assay [1] and in assay [2] were 97.3% and 87.3%, respectively.
Take `CCn1c(SCc2ccccc2Cl)nnc1[C@@H](C)NS(=O)(=O)c1ccc(Cl)cc1` [Compound 42]: the figures for the inhibition at 10 µM in assay [1] and in assay [2] were 98.8% and 85.4%, respectively.
In the case of `CCn1c(SCc2c(Cl)cccc2Cl)nnc1[C@@H](C)NS(=O)(=O)c1ccc(Cl)cc1` [Compound 43], the inhibition at 10 µM was determined as 102% in assay [1] and 90.5% in assay [2].
In general, Kd refers to the constant that tells how readily two partners part at equilibrium. Turning to `CCCCCCCCCCCCC/C=C\C(O)C(N)COP(=O)(O)O` (stereo not shown) [[^33P]-S1P, reference compound], the dissociation constant Kd in assay [1] (radioligand binding, membrane fraction, read-out: Kd of binding to human Edg-1(S1P1) gene transferred HEK-293 cell strain membrane fraction) was 150 pM.
